{"source": "paper PMC9953295", "about": "“Commonly Used Therapeutics Associated with Changes in Arousal Inhibit GABAAR Activation” (Biomolecules, 2023)", "key": {"[1]": {"molecular_target": "α1β2γ2L GABAA receptors stably expressed in HEK293 cells (Mus musculus, UniProt P22723+P62812+P63137)", "sequence (P63137 26-512)": "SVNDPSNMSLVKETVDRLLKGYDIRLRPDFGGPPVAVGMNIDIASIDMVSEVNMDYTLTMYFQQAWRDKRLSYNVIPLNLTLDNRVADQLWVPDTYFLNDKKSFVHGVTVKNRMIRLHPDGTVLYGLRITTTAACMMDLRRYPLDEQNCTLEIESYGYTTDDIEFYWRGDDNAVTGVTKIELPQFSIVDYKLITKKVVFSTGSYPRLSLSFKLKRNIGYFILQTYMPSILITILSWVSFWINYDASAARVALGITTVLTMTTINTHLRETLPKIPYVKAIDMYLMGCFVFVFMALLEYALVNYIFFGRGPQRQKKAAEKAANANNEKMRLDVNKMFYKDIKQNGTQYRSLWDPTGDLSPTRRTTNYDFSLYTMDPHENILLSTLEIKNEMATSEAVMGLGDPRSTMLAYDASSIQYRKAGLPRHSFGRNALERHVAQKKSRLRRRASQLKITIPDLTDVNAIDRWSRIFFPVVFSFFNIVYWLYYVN", "sequence (P22723 39-474)": "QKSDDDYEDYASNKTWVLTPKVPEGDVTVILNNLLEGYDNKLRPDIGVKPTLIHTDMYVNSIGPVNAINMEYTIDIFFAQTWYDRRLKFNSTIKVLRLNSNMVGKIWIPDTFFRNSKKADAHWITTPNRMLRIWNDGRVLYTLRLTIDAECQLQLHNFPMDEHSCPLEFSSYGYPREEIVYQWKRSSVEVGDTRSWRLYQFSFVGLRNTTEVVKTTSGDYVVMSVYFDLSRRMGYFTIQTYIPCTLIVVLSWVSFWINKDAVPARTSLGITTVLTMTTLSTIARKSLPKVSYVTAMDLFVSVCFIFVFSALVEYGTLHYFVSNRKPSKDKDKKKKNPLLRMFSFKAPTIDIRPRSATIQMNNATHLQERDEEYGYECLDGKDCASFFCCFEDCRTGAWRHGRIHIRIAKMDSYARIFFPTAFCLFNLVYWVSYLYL", "sequence (P62812 28-455)": "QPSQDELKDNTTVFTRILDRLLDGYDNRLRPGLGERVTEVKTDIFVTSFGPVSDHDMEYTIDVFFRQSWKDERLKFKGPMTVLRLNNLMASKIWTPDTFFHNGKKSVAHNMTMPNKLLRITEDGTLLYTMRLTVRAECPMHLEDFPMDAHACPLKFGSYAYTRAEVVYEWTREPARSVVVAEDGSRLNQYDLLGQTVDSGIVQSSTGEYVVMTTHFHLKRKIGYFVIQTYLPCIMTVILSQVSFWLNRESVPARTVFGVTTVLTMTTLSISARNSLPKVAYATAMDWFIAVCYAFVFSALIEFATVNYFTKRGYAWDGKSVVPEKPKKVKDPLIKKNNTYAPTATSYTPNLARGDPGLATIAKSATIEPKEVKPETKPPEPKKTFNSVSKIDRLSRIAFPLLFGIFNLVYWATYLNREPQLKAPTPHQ", "format": "cell-based", "settings": "for nH: Hill coefficient of modulator concentration-response; for Effect on GABAA receptor activation (in words): microfluidic patch clamp, concentrations up to 300 μM", "experimental": "Extracellular saline solutions contained 140 mM NaCl, 5 mM KCl, 2 mM CaCl2, 1 mM MgCl2, 10 mM HEPES, and 10 mM D-glucose. Both salines were adjusted to pH 7.4 (330 mOsm) and were 0.2 µm filter sterilized. The composition was based on solutions designed for long duration HEK293 biophysics studies. HEK293 cells stably expressing mouse α1β2γ2L receptors were dissociated with detachin (Genlantis, San Diego, CA, USA), resuspended in extracellular saline (2.5 × 10^6 cells/mL), and agitated prior to loading into 384-well Fluxion ensemble plates.\nCells were patched using an Ionflux Mercury microfluidic automated patch clamp system (Fluxion Biosciences, Oakland, CA, USA). Each experiment ran on a disposable 384-well plate with microfluidic channels printed into an ionized polydimethylsiloxane base. Each plate was divided into 4 zones, each containing 8 repeats of the same experimental pattern (see Figure 1). Each pattern comprised 8 compound wells containing the ligands/modulator combinations to be used in the experiment. Connected to these by a manifold perfusion chamber was an inlet well containing the cell suspension, an outlet well for discarded perfusate, and 2 trapping wells. Both trapping wells contained intracellular solution and were connected to the manifold via 20 1 µm diameter holes for cell attachment (each pattern can patch up to 40 cells simultaneously). Intracellular electrodes were placed in the 2 trapping wells, and the reference electrode in the waste well. Electrodes were connected to 64 conventional low-noise resistive feedback amplifiers. After cleaning, the plates were loaded with up to 100 µL of experimental solution or cell suspension per well. Each plate was loaded into the Fluxion Ionflux Mercury device, and a bespoke script primed the experimental fluidic channels and manifold, and the traps and sealed cells for voltage clamp measurements, and finally, controlled solution application/concentration jumps prior to saving the data collected. Agonist applications were repeated in triplicate (see Supplemental Figure S1). The current data were recorded at 10 kHz and stored for offline analysis. MATLAB scripts were used to measure the baseline leak current and peak response for each episode of data (typically 2000–4000/experiment). The matrix of peaks was expressed as a percentage of the response to a reference concentration. For the agonist concentration–response experiments, this was the maximum response. For the modulator concentration–response experiments, this was the EC10 agonist response."}, "[2]": {"settings": "one reference per drug; cited from earlier work"}, "[3]": {"molecular_target": "T1, Human GABAA receptor (α1β2γ2s) expressed in HEK293 cells (Homo sapiens, UniProt P14867+P18507+P47870)", "T1 construct": "expressed in transfected cells; host or cells: HEK293", "T1 sequence (P14867 28-456)": "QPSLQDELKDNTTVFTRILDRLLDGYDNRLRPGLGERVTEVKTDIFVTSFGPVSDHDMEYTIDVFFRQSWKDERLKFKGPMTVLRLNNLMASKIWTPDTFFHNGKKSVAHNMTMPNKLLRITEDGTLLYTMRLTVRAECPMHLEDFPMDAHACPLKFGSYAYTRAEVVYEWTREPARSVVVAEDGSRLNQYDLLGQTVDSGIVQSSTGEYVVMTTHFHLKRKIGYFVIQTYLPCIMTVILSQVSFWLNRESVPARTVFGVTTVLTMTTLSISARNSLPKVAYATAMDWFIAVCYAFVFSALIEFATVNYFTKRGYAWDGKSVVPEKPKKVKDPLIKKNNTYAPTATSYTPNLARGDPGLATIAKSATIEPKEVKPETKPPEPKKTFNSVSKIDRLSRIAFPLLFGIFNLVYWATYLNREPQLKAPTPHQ", "T1 sequence (P47870 25-512 limits assumed)": "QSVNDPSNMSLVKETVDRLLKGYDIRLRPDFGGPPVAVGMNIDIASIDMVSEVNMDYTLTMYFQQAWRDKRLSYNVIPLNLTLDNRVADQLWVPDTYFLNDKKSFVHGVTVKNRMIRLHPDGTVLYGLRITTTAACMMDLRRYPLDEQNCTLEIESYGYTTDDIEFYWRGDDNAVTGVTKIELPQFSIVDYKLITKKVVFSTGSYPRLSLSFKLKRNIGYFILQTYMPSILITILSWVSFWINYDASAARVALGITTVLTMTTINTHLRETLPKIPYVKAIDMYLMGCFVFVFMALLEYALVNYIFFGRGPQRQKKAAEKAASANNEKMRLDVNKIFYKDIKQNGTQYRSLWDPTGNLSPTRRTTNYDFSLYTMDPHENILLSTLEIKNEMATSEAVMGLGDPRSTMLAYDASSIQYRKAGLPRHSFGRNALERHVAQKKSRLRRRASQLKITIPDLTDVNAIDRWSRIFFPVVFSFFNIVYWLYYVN", "T1 sequence (P18507 40-467 isoform P18507-1 limits assumed)": "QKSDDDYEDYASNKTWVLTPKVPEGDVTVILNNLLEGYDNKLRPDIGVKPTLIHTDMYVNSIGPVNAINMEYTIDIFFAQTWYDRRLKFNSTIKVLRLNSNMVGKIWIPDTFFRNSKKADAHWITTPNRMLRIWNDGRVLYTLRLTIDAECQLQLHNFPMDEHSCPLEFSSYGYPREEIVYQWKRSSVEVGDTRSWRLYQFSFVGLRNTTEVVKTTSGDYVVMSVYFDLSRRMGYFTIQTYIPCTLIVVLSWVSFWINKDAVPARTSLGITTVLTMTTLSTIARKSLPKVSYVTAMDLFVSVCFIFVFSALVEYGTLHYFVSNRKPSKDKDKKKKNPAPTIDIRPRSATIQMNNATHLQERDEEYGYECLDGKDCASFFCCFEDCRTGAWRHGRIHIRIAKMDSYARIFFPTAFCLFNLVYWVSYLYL", "experiment": "Conventional whole-cell patch clamp: GABAA receptor activation and CSF-mediated potentiation", "format": "cell-based", "settings": "for Effect on GABAA receptor activation (in words): conventional single electrode patch clamp", "experimental": "Human GABAA receptor cDNAs (α1β2γ2s) were subcloned into the pcDNA 3.1 expression vector, and they were subsequently transfected into HEK293 cells using standard methods. Forty-eight hours later, cells were exposed to individual GABAARNAM solutions with simultaneous exposure to GABA. GABAARNAMs were obtained from Sigma-Aldrich, and the solutions were prepared with a saline solution to 1–300 µM concentrations. […] Stable cell lines were generated and handled as previously described.\nPatch pipettes were fabricated from thin-walled borosilicate glass (TW150F-4, World Precision Instruments, Inc., Sarasota, FL, USA) using a horizontal puller (P-97, Sutter Instrument Co., Novato, CA, USA). The resistances of the patch pipettes were 2–5 megaohms when filled with an intracellular solution containing 120 mM KCl, 2 mM MgCl2, 10 mM EGTA, and 10 mM HEPES, adjusted to pH 7.2 with NaOH. Cells were perfused continuously with an extracellular solution containing 160 mM NaCl, 10 mM HEPES, 6 mM D-glucose, 3 mM KCl, 1 mM MgCl2, and 1.5 mM CaCl2, adjusted to pH 7.4. Two 10-channel infusion pumps (KD Scientific) and a rapid solution exchanger (Biologic) were used to apply extracellular saline to the cells. […] The solution changer was driven by protocols written in pClamp 9.2 (Molecular Devices)."}, "[4]": {"design": "method as in PMID 10384859", "settings": "cited from earlier work"}}, "note": "Counter-ions that a name gives are not always drawn.", "data": [{"smiles": "NCCCC(=O)O", "note": "[GABA]", "values": [{"measurement": "Response to GABA as % of the maximal response", "setting": "[1]; 100 µM GABA", "value": "> 90", "unit": "%"}]}, {"smiles": "O=C(O[C@@H]1Cc2c(O)cc(O)cc2O[C@@H]1c1cc(O)c(O)c(O)c1)c1cc(O)c(O)c(O)c1", "note": "[EGCG, (-)-Epigallocatechin Gallate]", "values": [{"measurement": "[CNS] concentration of drug in the CNS", "setting": "[2]", "value": "0.18 [35] μM"}, {"measurement": "nH", "setting": "[1]", "value": 1.1}, {"measurement": "Effect on GABAA receptor activation (in words)", "setting": "[1]", "value": "modest inhibition of GABA activation"}]}, {"smiles": "CCN(CC)CCCC(C)Nc1ccnc2cc(Cl)ccc12", "note": "(stereo not shown) [Chloroquine]", "values": [{"measurement": "[CNS] concentration of drug in the CNS", "setting": "[2]", "value": "1.60 [36] μM"}]}, {"smiles": "CN(C)c1ccc(O)c2c1C[C@H]1C[C@H]3[C@H](N(C)C)C(O)=C(C(N)=O)C(=O)[C@@]3(O)C(O)=C1C2=O", "note": "[Minocycline]", "values": [{"measurement": "[CNS] concentration of drug in the CNS", "setting": "[2]", "value": "1.1 [41] μM"}, {"measurement": "Effect on GABAA receptor activation (in words)", "setting": "[1]", "value": "irreversible blocker"}]}, {"smiles": "CC[C@H]1OC(=O)[C@H](C)[C@@H](O[C@H]2C[C@@](C)(OC)[C@@H](O)[C@H](C)O2)[C@H](C)[C@@H](O[C@@H]2O[C@H](C)C[C@H](N(C)C)[C@H]2O)[C@](C)(O)C[C@@H](C)C(=O)[C@H](C)[C@@H](O)[C@]1(C)O", "note": "[Erythromycin]", "values": [{"measurement": "[CNS] concentration of drug in the CNS", "setting": "[2]", "value": "0.68 [38] μM"}]}, {"smiles": "CC1COc2c(N3CCN(C)CC3)c(F)cc3c(=O)c(C(=O)O)cn1c23", "note": "(stereo not shown) [Ofloxacin]", "values": [{"measurement": "Effect on GABAA receptor activation (in words)", "setting": "[3]", "value": "modest and incomplete block of receptor activation"}, {"measurement": "[CNS] concentration of drug in the CNS", "setting": "[2]", "value": "5.6 [42] μM"}, {"measurement": "Effect on GABAA receptor activation (in words)", "setting": "[1]", "value": "modest and incomplete block of receptor activation"}]}, {"smiles": "CCN(CCO)CCCC(C)Nc1ccnc2cc(Cl)ccc12", "note": "(stereo not shown) [Hydroxychloroquine, Hydroxychloroquine sulfate]", "values": [{"measurement": "[CNS] concentration of drug in the CNS", "setting": "[2]", "value": "50 [39] μM"}, {"measurement": "nH", "setting": "[1]", "value": 1.4}, {"measurement": "Effect on GABAA receptor activation (in words)", "setting": "[1]", "value": "modest and incomplete block of receptor activation"}]}, {"smiles": "CC[C@H]1OC(=O)[C@H](C)[C@@H](O[C@H]2C[C@@](C)(OC)[C@@H](O)[C@H](C)O2)[C@H](C)[C@@H](O[C@@H]2O[C@H](C)C[C@H](N(C)C)[C@H]2O)[C@](C)(OC)C[C@@H](C)C(=O)[C@H](C)[C@@H](O)[C@]1(C)O", "note": "[Clarithromycin, clarithromycin]", "values": [{"measurement": "Reversal of CSF-induced potentiation of GABA receptor function", "setting": "[3]; 300 μM clarithromycin, currents activated by 10 μM GABA (EC10), CSF from hypersomnolent patients, n = 6 cells", "value": "71 ± 13", "unit": "%"}, {"measurement": "Intrinsic efficacy at GABAA receptor (in words)", "setting": "[3]; clarithromycin applied without GABA", "value": "no intrinsic efficacy"}, {"measurement": "Effect on GABAA receptor activation (in words)", "setting": "[3]", "value": "reversibly inhibits receptor activation"}, {"measurement": "[CNS] concentration of drug in the CNS", "setting": "[2]", "value": "10 [37] μM"}, {"measurement": "Effect of clarithromycin concentration on GABA EC50 (in words)", "setting": "[1]; GABA concentration–function relationships in 0–300 μM clarithromycin", "value": "GABA EC50 continued to increase"}, {"measurement": "nH", "setting": "[1]", "value": 1}, {"measurement": "Effect on GABAA receptor activation (in words)", "setting": "[1]", "value": "reversibly inhibited GABAA receptor activation in a concentration-dependent manner"}]}, {"smiles": "C1CCc2nnnn2CC1", "note": "[pentylenetetrazole, Pentylenetetrazol]", "values": [{"measurement": "[CNS] concentration of drug in the CNS", "setting": "[2]", "value": "330 [43] μM"}, {"measurement": "nH", "setting": "[1]", "value": 1.3}, {"measurement": "Effect on GABAA receptor activation (in words)", "setting": "[1]", "value": "blocked GABAAR activation in a concentration-dependent manner"}]}, {"smiles": "Cc1ncc([N+](=O)[O-])n1CCO", "note": "[Metronidazole]", "values": [{"measurement": "Bioavailability", "setting": "[4]; administered orally", "value": "> 90", "unit": "%"}, {"measurement": "CNS concentration as % of plasma concentrations", "setting": "[4]", "value": "60–100%"}, {"measurement": "nH", "setting": "[1]", "value": 0.8}, {"measurement": "Effect on GABAA receptor activation (in words)", "setting": "[1]", "value": "modest inhibition of GABA activation"}]}]}
